Laboratory results published in patent US10519114B2, “Peptidomimetics and methods of using the same” (The Regents of the University of Michigan, priority 2016, dated 2019).

Key:
[1] = target: T1, rat δ (C6-DOR) opioid receptor (Rattus norvegicus, UniProt P33533); assay: Radioligand binding assay, [3H]diprenorphine displacement, DOR; details: displacement of 0.2 nM [3H]diprenorphine, C6-DOR membranes; mean ± standard error
T1 construct: expressed in transfected cells
Description: (§1) In Vitro Pharmacology-Cell Lines and Membrane Preparations. All tissue culture reagents were purchased from Gibco Life Sciences (Grand Island, N.Y., U.S.). C6-rat glioma cells stably transfected with a rat μ (C6-MOR) or rat δ (C6-DOR) opioid receptor20 and Chinese hamster ovary (CHO) cells stably expressing a human K (CHO-KOR) opioid receptor21 were used for all in vitro assays. Cells were grown to confluence at 37° C. in 5% CO2 in Dulbecco's modified Eagle medium containing 10% fetal bovine serum and 5% penicillin/streptomycin. Membranes were prepared by washing confluent cells three times with ice cold phosphate buffered saline (0.9% NaCl, 0.61 mM Na2HPO4, 0.38 mM KH2PO4, pH 7.4). Cells were detached from the plates by incubation in warm harvesting buffer (20 mM HEPES, 150 mM NaCl, 0.68 mM EDTA, pH 7.4) and pelleted by centrifugation at 200 g for 3 min. The cell pellet was suspended in ice-cold 50 mM Tris-HCl buffer, pH 7.4, and homogenized with a Tissue Tearor (Biospec Products, Inc., Bartlesville, Okla., U.S.) for 20 s at setting 4. The homogenate was centrifuged at 20 000 g for 20 min at 4° C., and the pellet was rehomogenized in 50 mM Tris-HCl with a Tissue Tearor for 10 s at setting 2, followed by recentrifugation. The final pellet was resuspended in 50 mM Tris-HCl and frozen in aliquots at […]. Protein concentration was determined via Bradford assay using bovine serum albumin as the standard.
(§2) Radioligand Binding Assays. Radioactive compounds were purchased from Perkin-Elmer (Waltham, Mass., U.S.). Opioid ligand binding assays were performed using competitive displacement of 0.2 nM [3H]diprenorphine (250 μCi, 1.85 TBq/mmol) by the test compound from membrane preparations containing opioid receptors. The assay mixture, containing membrane suspension (20 μg protein/tube) in 50 mM Tris-HCl buffer (pH 7.4), [3H]diprenorphine, and various concentrations of test peptide, was incubated at room temperature for 1 h to allow binding to reach equilibrium. The samples were rapidly filtered through Whatman GF/C filters using a Brandel harvester (Brandel, Gaithersburg, Md., U.S.) and washed three times with 50 mM Tris-HCl buffer. The radioactivity retained on dried filters was determined by liquid scintillation counting after saturation with EcoLume liquid scintillation cocktail in a Wallac 1450 MicroBeta (Perkin-Elmer, Waltham, Mass., U.S.). Nonspecific binding was determined using 10 μM naloxone. Inhibitory constant (Ki) values were calculated using nonlinear regression analysis to fit a logistic equation to the competition data using GraphPad Prism, version 5.01, for Windows (GraphPad Software Inc., La Jolla, Calif.). The results presented are the mean±standard error from at least three separate assays performed in duplicate.

[2] = target: T1, rat δ (C6-DOR) opioid receptor; assay: Stimulation of [35S]GTPγS binding, DOR; type: biochemical; details: for EC50 (nm) DOR / EC50: [35S]GTPγS binding, C6-DOR membranes, mean ± standard error; for % stimulation DOR / Emax: [35S]GTPγS maximal stimulation compared with 10 μM standard DPDPE
Description: as §1
(§3) Stimulation of [^35S]GTPyS Binding. Agonist stimulation of [35S]guanosine 5′-O-[γ-thio]triphosphate ([^35S]GTPγS, 1250 Ci, 46.2 TBq/mmol) binding was measured as described previously Briefly, membranes (10-20 μg of protein/tube) were incubated 1 h at room temperature in GTPyS buffer (50 mM Tris-HCl, 100 mM NaCl, 5 mM MgCl2, pH 7.4) containing 0.1 nM [^35S]GTPγS, 30 μM guanosine diphosphate (GDP), and varying concentrations of test peptides. Peptide stimulation of [^35S]GTPyS was compared with 10 μM standard compounds [D-Ala^2,N-MePhe^4,Gly-ol]encephalin (DAMGO) at MOR, D-Pen^2,5-enkephalin (DPDPE) at DOR, or […] at KOR. The reaction was terminated by rapidly filtering through GF/C filters and washing 10 times with GTPyS buffer, and retained radioactivity was measured as described above. The results presented are the mean±standard error from at least three separate assays performed in duplicate; maximal stimulation was determined using nonlinear regression analysis with GraphPad Prism (GraphPad Software Inc., La Jolla, Calif.).

[3] = target: T2, human κ (CHO-KOR) opioid receptor (Homo sapiens, UniProt P41145); assay: Stimulation of [35S]GTPγS binding, KOR; type: biochemical; details: for EC50 (nm) KOR / EC50: [35S]GTPγS binding, CHO-KOR membranes, mean ± standard error; for % stimulation KOR / Emax: [35S]GTPγS maximal stimulation compared with 10 μM standard U-69,593
T2 construct: expressed in transfected cells
Description: as §1, §3

[4] = target: T3, rat μ (C6-MOR) opioid receptor (Rattus norvegicus, UniProt P33535); assay: Stimulation of [35S]GTPγS binding, MOR; type: biochemical; details: for EC50: [35S]GTPγS binding, C6-MOR membranes, mean ± standard error; for Emax: [35S]GTPγS maximal stimulation compared with 10 μM standard DAMGO
T3 construct: expressed in transfected cells
Description: as §1, §3

[5] = target: T3, rat μ (C6-MOR) opioid receptor; assay: Radioligand binding assay, [3H]diprenorphine displacement, MOR; details: displacement of 0.2 nM [3H]diprenorphine, C6-MOR membranes; mean ± standard error
Description: as §1, §2

[6] = target: T2, human κ (CHO-KOR) opioid receptor; assay: Radioligand binding assay, [3H]diprenorphine displacement, KOR; details: displacement of 0.2 nM [3H]diprenorphine, CHO-KOR membranes; mean ± standard error
Description: as §1, §2

T3 sequence (P33535 whole entry): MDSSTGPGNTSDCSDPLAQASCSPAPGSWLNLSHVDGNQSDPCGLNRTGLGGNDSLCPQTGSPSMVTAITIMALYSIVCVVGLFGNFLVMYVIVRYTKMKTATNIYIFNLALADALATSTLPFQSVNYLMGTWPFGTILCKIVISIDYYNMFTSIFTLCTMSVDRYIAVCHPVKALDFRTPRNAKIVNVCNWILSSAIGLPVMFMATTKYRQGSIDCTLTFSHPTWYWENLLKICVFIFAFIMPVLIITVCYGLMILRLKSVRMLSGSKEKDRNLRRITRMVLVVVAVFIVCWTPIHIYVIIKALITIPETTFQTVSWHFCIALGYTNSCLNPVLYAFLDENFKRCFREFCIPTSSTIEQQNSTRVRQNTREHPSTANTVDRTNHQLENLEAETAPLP
T1 sequence (P33533 whole entry): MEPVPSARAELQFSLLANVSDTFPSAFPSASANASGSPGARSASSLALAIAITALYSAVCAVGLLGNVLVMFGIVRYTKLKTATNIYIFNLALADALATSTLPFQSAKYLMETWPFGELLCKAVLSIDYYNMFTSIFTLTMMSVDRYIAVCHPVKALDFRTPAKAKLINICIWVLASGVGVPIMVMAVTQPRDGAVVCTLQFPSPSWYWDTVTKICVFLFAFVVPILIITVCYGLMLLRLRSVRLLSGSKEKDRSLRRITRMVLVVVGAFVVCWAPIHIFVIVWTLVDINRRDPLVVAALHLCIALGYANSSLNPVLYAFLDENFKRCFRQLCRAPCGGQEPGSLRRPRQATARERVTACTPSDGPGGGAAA
T2 sequence (P41145 whole entry): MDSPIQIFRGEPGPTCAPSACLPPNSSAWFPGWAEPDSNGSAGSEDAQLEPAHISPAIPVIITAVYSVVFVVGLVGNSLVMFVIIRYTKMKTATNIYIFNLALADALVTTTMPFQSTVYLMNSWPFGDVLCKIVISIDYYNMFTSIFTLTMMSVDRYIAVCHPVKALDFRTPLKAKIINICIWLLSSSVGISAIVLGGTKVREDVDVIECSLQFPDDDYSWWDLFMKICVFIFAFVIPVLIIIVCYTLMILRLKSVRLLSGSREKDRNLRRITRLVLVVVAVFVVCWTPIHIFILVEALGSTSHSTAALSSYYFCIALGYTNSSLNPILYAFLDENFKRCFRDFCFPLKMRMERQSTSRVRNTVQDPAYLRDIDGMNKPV

| Structure (SMILES) | Ki [1] [nM] | EC50 (nm) DOR [2] | % stimulation DOR [2] | EC50 (nm) KOR [3] | % stimulation KOR [3] | EC50 [4] [nM] | Emax [4] [%] | Ki [5] [nM] | Ki [6] [nM] | EC50 [2] [nM] | Emax [2] [%] | EC50 [3] [nM] | Emax [3] [%] |
| --- | --- | --- | --- | --- | --- | --- | --- | --- | --- | --- | --- | --- | --- |
| Cc1cc(O)cc(C)c1C[C@H](N)C(=O)N[C@@H]1CCNc2ccc(CN3CCc4cccc(C(F)(F)F)c4C3)cc21 [Compound 1061] | 13.6 ± 1.27 | dns | dns | dns | dns | 8.88 ± 2.71 | 37.8 ± 2.55 | 0.17 ± 0.03 | 48.5 ± 17.5 | – | – | – | – |
| Cc1ccc2c(c1)CN(Cc1ccc3c(c1)[C@H](NC(=O)[C@@H](N)Cc1c(C)cc(O)cc1C)CCN3)CC2 [Compound 1049] | 23.3 ± 2.51 | dns | dns | dns | dns | 0.35 ± 0.11 | 111 ± 4.65 | 0.17 ± 0.06 | 11.9 ± 6.13 | – | – | – | – |
| CC(=O)N1CC[C@@H](NC(=O)[C@@H](N)Cc2c(C)cc(O)cc2C)c2cc(Oc3cccc(Cl)c3)ccc21 [Compound 1027] | 5.03 ± 0.29 | – | – | – | – | 8.07 ± 4.81 | 72.2 ± 2.41 | 0.05 ± 0.01 | 21 | 431 ± 216 | 7.42 ± 5.57 | 791 | 55.1 |
| CC(=O)N1CC[C@@H](NC(=O)[C@@H](N)Cc2c(C)cc(O)cc2C)c2cc(Cc3ccccc3)cc(C)c21 [Compound 1055] | 1.88 ± 0.53 | – | – | – | – | 7.05 ± 2.32 | 86 ± 3 | 0.18 ± 0.04 | 80 ± 20 | 384 ± 296 | 30 ± 3 | 930 ± 600 | 32 ± 2 |
| CCCCCCc1ccc2c(c1)[C@H](NC(=O)[C@@H](N)Cc1c(C)cc(O)cc1C)CCN2 [Compound 1011] | 5.89 ± 0.76 | – | – | – | – | 2.41 ± 0.81 | 35.9 ± 5.28 | 0.13 ± 0.02 | 15.1 ± 5.7 | 1.7 | 2.5 ± 2.5 | 773 ± 26.5 | 34.6 ± 1.11 |
| CC(=O)N1CC[C@@H](NC(=O)[C@@H](N)Cc2c(C)cc(O)cc2C)c2cc(CC3Cc4ccccc4C3C)ccc21 (stereo partly shown) [Compound 1125] | 0.67 ± 0.08 | dns | dns | dns | dns | 3.03 ± 2.32 | 69.5 ± 10.4 | 0.28 ± 0.12 | 2.53 ± 1.52 | – | – | – | – |
| Cc1cc(O)cc(C)c1C[C@H](N)C(=O)N[C@@H]1CCCc2ccc(-c3ccc4ccccc4c3)cc21 [Compound 1116] | 6.03 ± 0.2 | – | – | – | – | – | -1.1 ± 1.61 | 0.24 ± 0.12 | 315.9 ± 0.91 | – | 1.75 ± 1.44 | 237 | 5.57 ± 8.53 |
| Cc1cc(O)cc(C)c1C[C@H](N)C(=O)N[C@@H]1CCNc2ccc(Cc3ccc4c(c3)OCCO4)cc21 [Compound 1050] | 5.48 ± 0.81 | dns | dns | dns | dns | 5.54 ± 0.12 | 87.5 ± 12 | 0.35 ± 0.11 | 116 ± 65.1 | – | – | – | – |
| Cc1cc(O)cc(C)c1C[C@H](N)C(=O)N[C@H]1CCOc2ccc(Cc3ccccc3)cc21 [Compound 1112] | 260 ± 62.9 | – | – | – | – | 654 ± 361 | 7.18 ± 2.41 | 6.07 ± 2.41 | 354 ± 37.1 | – | 2.48 ± 3.08 | – | -0.061 ± 0.45 |
| Cc1cc(O)cc(C)c1C[C@H](N)C(=O)N[C@@H]1CCNc2ccc(Cc3c(Cl)cccc3Cl)cc21 [Compound 1032] | 4.61 ± 0.06 | dns | dns | – | – | 2040 | 33.6 | 0.08 ± 0.01 | 4.85 ± 0.66 | – | – | – | 0 |
| Cc1cc(O)cc(C)c1C[C@H](N)C(=O)N[C@@H]1CCNc2ccc(CN3CCC[C@H]4CCCC[C@@H]43)cc21 [Compound 1051] | 9.5 ± 1.22 | dns | dns | dns | dns | 1.22 ± 0.07 | 36.2 ± 8.14 | 0.18 ± 0.03 | 7.03 ± 1.36 | – | – | – | – |
| CC(=O)N1CC[C@@H](NC(=O)[C@@H](N)Cc2c(C)cc(O)cc2C)c2cc(Oc3ccc(Cl)cc3)ccc21 [Compound 1026] | 3.1 ± 0.69 | – | – | – | – | 7.01 ± 1.49 | 61.2 ± 6.93 | 0.1 ± 0.03 | 45.5 ± 6.67 | – | 0 | 1820 | 47.3 |
| Cc1ccc(Cc2ccc3c(c2)[C@H](NC(=O)[C@@H](N)Cc2c(C)cc(O)cc2C)CCN3)cc1 [Compound 1007] | 6.1 | – | – | – | – | – | 99 | 0.11 | 18 | – | 13 | – | 14 |
| Cc1cc(O)cc(C)c1C[C@H](N)C(=O)N[C@@H]1CCNc2ccc(CN3CCc4ccc(F)cc4C3)cc21 [Compound 1054] | 16.7 ± 2.47 | – | dns | – | dns | 0.5 ± 0.05 | 105 ± 4.56 | 0.17 ± 0.02 | 9.63 ± 0.4 | 25.9 ± 16.9 | – | 108 | – |
| Cc1cc(O)cc(C)c1C[C@H](N)C(=O)N[C@@H]1CCNc2c(CN3CCNCC3)cc(Cc3ccccc3)cc21 [Compound 1131] | 22 | – | – | – | – | 8 | 61 | 0.35 | 1.9 | 280 | 17 | 190 | 18 |
| Cc1cc(O)cc(C)c1C[C@H](N)C(=O)N[C@@H]1CCSc2ccc(Cc3ccccc3)cc21 [Compound 1123] | 4.79 ± 1.11 | dns | dns | – | – | 1.92 ± 0.54 | 79.9 ± 7.51 | 0.15 ± 0.04 | 48.4 ± 23.1 | – | – | 337 ± 205 | 10.3 ± 5.17 |
| Cc1cc(O)cc(C)c1C[C@H](N)C(=O)N[C@@H]1CCNc2c(-c3cc4ccccc4o3)cc(Cc3ccccc3)cc21 [Compound 1095] | 71 ± 17 | dns | dns | dns | dns | 15.6 ± 6.86 | 100 ± 2.48 | 3.14 ± 1 | 800 ± 115 | – | – | – | – |
| Cc1cc(O)cc(C)c1C[C@H](N)C(=O)N(C)[C@@H]1CCNc2ccc(Cc3ccccc3)cc21 [Compound 1001] | 15.7 ± 3.7 | – | – | – | – | 3 ± 0.31 | 80.6 ± 4.7 | 0.9 ± 0.3 | 116 ± 30 | 410 ± 138 | 12.6 ± 5.5 | 488 ± 142 | 3.9 ± 0.9 |
| CCCc1cc(Br)cc2c1NCC[C@H]2NC(=O)[C@@H](N)Cc1c(C)cc(O)cc1C [Compound 1058] | 45.9 ± 22.6 | – | – | dns | dns | 859 | 12.6 | 21.7 ± 8.06 | 208 ± 16 | – | – | – | – |
